Read-outs that look alike come from different tables or passages of the source.
Tests used:
[1] = system: Sox9 promoter-Luc in ATDC5 cells; assay: Sox9 promoter-Luc luciferase reporter assay; format: cell-based, mouse; conditions: 10 μM H89, 30 μM HL-43, 6 h
Experimental: (§1) Six firefly luciferase reporters were used in the Luciferase assay, including CRE-Luc (PathDetect CRE cis-Reporting System; Stratagene, La Jolla CA) driven by a basic promoter (TATA box) plus four repeats of CRE; Sox9 promoter-Luc contains human SOX9 proximal promoter region (−1034 bp to +67 bp)[45]; 4 × 48-p89-Luc, mouse Col2a1 minimal promoter. AP-1-Luc, Nf-κb-Luc, STAT-Luc were obtained from Stratagene. Chondrocytes were cultured in 24-well plates and 300 ng firefly luciferase reporter constructs were transiently transfected using transfection reagent TransExellent-DNA (Cenji Biotech Inc, China) following manufacturer’s instruction, and 15 ng of the Copia-Renilla luciferase reporter was co-transfected as a normalization control. Cells were treated with the indicated reagents for 48 h after transfection. The Dual-Luciferase measurements were performed in triplicate using the Luciferase assay kit (Promega) and a LUMIstar Omega luminometer (BMG Labtech, Mornington, Australia).

CRE-Luc in ATDC5 cells = assay: CRE-Luc luciferase reporter assay; format: cell-based, mouse; conditions: 10 μM H89, 30 μM HL-43, 2 ng/ml IL-1β, 6 h
Experimental: as §1, with “Cells were treated with the indicated reagents for 48 h after transfection.” left out

[2] = Preliminary pharmacokinetic studies in CD1 mice; format: in vivo
Experimental: To evaluate the preclinical pharmacokinetic (PK) profiles of compound HL-43 and HL-66, 36 male CD1 mice were randomly divided into four groups for PK studies. […] Blood samples were collected at 0.083, 0.25, 0.5, 1, 2, 4, 8, 12, and 24 h after administration (n = 3). Then the whole blood was centrifuged at 5500 × g for 15 min at 4 °C. After suitable sample preparation, the concentration of HL-43 and HL-66 in plasma sample was determined by Agilent HPLC-MS/MS system (Agilent Technologies, USA). Pharmacokinetic parameters were calculated by WinNonlin software version 7.0 based on non-compartmental analysis (Pharsight Corporation, Mountain View, USA). Mean plasma concentration-time curves were plotted by GraphPad Prism 7.0 (GraphPad Software Inc., CA, USA).

[3] = system: primary articular chondrocytes; assay: Cell viability by CCK-8 assay; format: cell-based, mouse; conditions: 72 h, read-out: IC50 (cell viability, toxicity in chondrocytes)
Experimental: The cell viability was evaluated by CCK-8 assay (Dojindo Molecular Technologies). Primary chondrocytes were plated in the 96-well plates and treated with the EP4 antagonists or DMSO for 72 h. A total of 10 μl CCK-8 was added to each well, the cells were incubated in the presence of CCK-8 for 2–3 h. The optical density (OD) of each well at 450 nm was recorded on a Microplate Reader (SPECTRA MAX190). The absorbance values were normalized by subtracting blank values of […]. The cell viability (% of control) is calculated as the percentage of (ODtest − ODblank)/(ODcontrol − ODblank). The 50% inhibitory concentration (IC50) was calculated with GraphPad Prism software using the sigmoidal dose-response function.
(§2) ATDC5 cell line was purchased from Riken BioResource Center (Tsukuba, Japan) and grown in a 1:1 mixture of DMEM/F12 medium (Corning, 10-092-CVR) supplemented with 5% fetal bovine serum (Gibco, 10099, USA) and 1% penicillin-streptomycin solution (Life Technologies). Cells were maintained at 37 °C under 5% CO2. Primary chondrocytes were obtained from knee joint cartilage of newborn mice. Knee joints were dissected from the tibia plateau and femoral condyle articular cartilage of mouse pups and digested in 0.1% collagenase type II (Sigma) overnight at 37 °C and chondrocytes were harvested by centrifugation. Primary chondrocytes were cultured at a density of 5 × 10^3 cells per ml at 37 °C with 5% CO2. DMEM/F12 medium with 10% fetal bovine serum (FBS) and 1% penicillin–streptomycin was used to culture the primary chondrocytes. Chondrogenic differentiation were induced with chondrogenic medium, which contains insulin-transferrin-selenium (ITS) (Sigma, I3146), 10 ng/ml TGF-β3 (PEPROTECH, 100-36E, USA), 100 nM Dexamethasone (Sigma, D4902), 50 μg/ml VC (Sigma), 1 mM sodium pyruvate (Sigma) and 40 μg/ml proline (Sigma), and/or treatment with rmIL-1β (R&D, 401-ML/CF), TNFα (PEPROTECH, 300-01A-50) in DMEM/F12 for indicated days. Western blotting was performed according to standard protocols. Antibodies used were: rabbit anti-Mmp3 (1:1000, HuaBio), rabbit anti-Mmp13 (1:500, abcam, ab39012), rabbit anti-p-CREB (1:2000, Cell Signaling Technology, 87G3), rabbit anti-CREB (1:2000, Cell Signaling Technology, 48H2), mouse anti-GAPDH (1:5000; Sigma-Aldrich, G8795), rabbit anti-Col2 (Abcam, Ab34712), rabbit anti-STAT3 (1:2000; Abcam, ab68153), rabbit anti-p-STAT3 (Y705) (1:2000; Abcam, ab76315), rabbit anti -p65 (1:1000; CST, 3034), rabbit anti-p-p65 (1:1000; CST, 3033), and rabbit anti-IκBα (1:1000; Abways, CY5026).

[4] = system: Col2a1, Acan, Mmp3, Mmp9, Mmp13 expression in primary mouse chondrocytes; assay: qRT-PCR of anabolic and catabolic factors in primary chondrocytes; format: cell-based; conditions: primary murine chondrocytes, 1 ng/ml IL-1β, 24 hr
Experimental: as §2
Quantitative RT-PCR was performed to measure the relative mRNA levels. RNA samples were prepared from the chondrocytes using Trizol (Takara). cDNA was generated using the Prime Script RT reverse transcriptase kit (Yeasen, Drr036a). Primers used for amplification were shown in Supplementary Table S1, GAPDH was used as the house keeping gene.

zebrafish embryos = assay: Zebrafish embryo toxicity assay; design: Mortality / Deformities / Hatching: dose or concentration left out as unconfirmed; conditions: for Mortality: zebrafish embryos; for Deformities / Hatching: zebrafish
Experimental: A breeding stock of zebrafish at the age of 6–24 months is used for egg production. Fertilized eggs were collected and viable eggs were transferred to the 12-well plate at 26 °C. Fertilized eggs between the 4-cell and 128-cell stages be used for the toxicity test, with ten fertilized eggs per concentration and three replicates of each concentration, a total of 30 eggs for each concentration. […] DMSO was added as vehicle control. Hatching, morphological abnormalities and survival were assessed 24 and 72 h of post-fertilization (dpf) in zebrafish exposed to the chemicals.

Question: What does the source list for O=S(=O)(NCCNC/C=C/c1ccc(Br)cc1)c1cccc2cnccc12 [H89, reference compound]?
Answer: HL-43-induced Sox9 promoter luciferase reporter activity [1]: completely abolished; HL-43-induced CRE luciferase reporter activity (CRE-Luc in ATDC5 cells): completely abolished

Question: With Cc1ccc(-c2nnn(CCOc3ccc(F)cc3)c2C(=O)N[C@@H](C)c2ccc(C(=O)O)cc2)o1 [HL-66] as the compound, how does the “AUC0-∞” value ([2]; I.V. (5 mg/kg)) read?
Answer: Its value is 1236.5 ng·h/mL.

Question: What about the C0 ([2]; I.V. (5 mg/kg)) of the same compound?
Answer: Its C0 is 2557.7 ng/mL.

Question: And the CL ([2]; I.V. (5 mg/kg))?
Answer: The CL was 13 mL/min/kg.

Question: What about the Vd ([2]; I.V. (5 mg/kg)) of the same compound?
Answer: Its Vd is 3.7 L/kg.

Question: And the t1/2 ([2]; I.V. (5 mg/kg))?
Answer: Its t1/2 is 3.2 h.

Question: And the “AUC0-∞” value ([2]; P.O. (1 mg/kg))?
Answer: Its value is 672.5 ng·h/mL.

Question: What about the CL ([2]; P.O. (1 mg/kg)) of the same compound?
Answer: The CL was 123 mL/min/kg.

Question: And the Cmax ([2]; P.O. (1 mg/kg))?
Answer: The Cmax was 286.0 ng/mL.

Question: And the Vd ([2]; P.O. (1 mg/kg))?
Answer: The Vd was 26.7 L/kg.

Question: What about the t1/2 ([2]; P.O. (1 mg/kg)) of the same compound?
Answer: The t1/2 was 2.5 h.

Question: And the Bioavailability ([2]; oral)?
Answer: Its Bioavailability is 10.9%.

Question: What about the IC50 [3] of the same compound?
Answer: The IC50 was 330 µM.

Question: What about the “Col2a1 expression (screen of EP4 antagonists)” value ([4]; EP4 antagonists (2 nM)) of the same compound?
Answer: Its value is “highest potency in inducing Col2a1 expression”.

Question: And the “Mmp3 expression (screen of EP4 antagonists)” value ([4]; EP4 antagonists (30 μM))?
Answer: The value was “reducing Mmp3 expression”.

Question: For Cc1ccc(-c2cc(C(F)(F)F)nn2-c2ccc(S(N)(=O)=O)cc2)cc1 [Celecoxib], which IC50 ([3]; Mus musculus, Chondrocyte) is on record?
Answer: The IC50 was 34.7 µM.

Question: What about the Mortality (zebrafish embryos; 24hpf, 0.03, n=30) of the same compound?
Answer: The Mortality was 0/30.

Question: And the Mortality (zebrafish embryos; 24hpf, 0.1, n=30)?
Answer: Its Mortality is 7/30.

Question: And the Mortality (zebrafish embryos; 24hpf, 0.3, n=30)?
Answer: Its Mortality is 12/30.

Question: What about the Mortality (zebrafish embryos; 24hpf, 1, n=30) of the same compound?
Answer: The Mortality was 18/30.

Question: What about the Deformities (zebrafish embryos; 72hpf, 0.03, n=30) of the same compound?
Answer: Its Deformities is 4/30.

Question: What about the Hatching (zebrafish embryos; 72hpf, 0.03, n=30) of the same compound?
Answer: Its Hatching is 12/30.

Question: And the Deformities (zebrafish embryos; 72hpf, 0.1, n=30)?
Answer: Its Deformities is 3/30.

Question: And the Hatching (zebrafish embryos; 72hpf, 0.1, n=30)?
Answer: The Hatching was 8/30.

Question: And the Deformities (zebrafish embryos; 72hpf, 0.3, n=30)?
Answer: Its Deformities is 7/30.

Question: What about the Hatching (zebrafish embryos; 72hpf, 0.3, n=30) of the same compound?
Answer: The Hatching was 13/30.

Question: What about the Deformities (zebrafish embryos; 72hpf, 1, n=30) of the same compound?
Answer: Its Deformities is 2/30.

Question: What about the Hatching (zebrafish embryos; 72hpf, 1, n=30) of the same compound?
Answer: Its Hatching is 3/30.
